Reference: patent US11065304B2, “Peptide pharmaceuticals for insulin resistance” (MEDERIS DIABETES, LLC, priority 2012, dated 2021)
pEC50: −log10 of the molar value.

How the values were obtained:
[1] = molecular target: T1, GLP-1 R (Homo sapiens, UniProt P43220); experiment: DiscoveRx LeadHunter cellular assay, cAMP stimulation, GLP-1 receptor; assay type: cell-based
Description: (§1) § means superagonist A further series of cellular assays were carried out using standard cellular assays (DiscoveRx, LeadHunter assays) using readout of cAMP stimulation or arrestin activation. Compounds were weighed precisely in an amount of approximately 1 mg and shipped to DiscoveRx for dilution and assay.

[2] = molecular target: T1, GLP-1 R; experiment: DiscoveRx LeadHunter cellular assay, arrestin activation, GLP-1 receptor; assay type: cell-based
Description: as §1

[3] = molecular target: T2, glucagon R (Homo sapiens, UniProt P47871); experiment: DiscoveRx LeadHunter cellular assay, cAMP stimulation, glucagon receptor; assay type: cell-based
T2 construct: host or cells: CHO cells
T2 sequence (P47871 26-477): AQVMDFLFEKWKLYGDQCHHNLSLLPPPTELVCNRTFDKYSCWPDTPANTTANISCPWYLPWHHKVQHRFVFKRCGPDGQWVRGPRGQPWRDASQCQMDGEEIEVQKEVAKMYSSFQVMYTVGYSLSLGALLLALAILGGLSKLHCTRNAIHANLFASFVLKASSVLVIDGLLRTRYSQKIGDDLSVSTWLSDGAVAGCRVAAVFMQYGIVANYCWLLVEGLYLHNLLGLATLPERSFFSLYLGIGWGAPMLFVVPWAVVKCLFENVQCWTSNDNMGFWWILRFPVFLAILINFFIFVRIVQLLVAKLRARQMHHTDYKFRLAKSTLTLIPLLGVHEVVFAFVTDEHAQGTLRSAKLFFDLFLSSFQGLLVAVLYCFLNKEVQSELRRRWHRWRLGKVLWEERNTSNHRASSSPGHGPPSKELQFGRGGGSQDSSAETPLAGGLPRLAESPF
Description: as §1

[4] = system: db/db mice; experiment: In vivo assay in db/db mice (blood glucose, body weight, food consumption); conditions: for db/db mice - Mean Blood Glucose, 10 hr: 10 hr after first dose; for db/db mice - Mean Blood Glucose, 24 hr: 24 hr after first dose; for db/db mice - Mean Blood Glucose, 48 hr: 48 hr after first dose
Description: The 60 female db/db B6BKS (D) Leprdb/J (strain 000697) mice for this study were approximately 8 to 9 weeks old at arrival (Jackson Laboratory, Bar Harbor, Me.). […] One group of 8 female mice served as the vehicle control and received the vehicle, 0.2% BSA in saline, pH 7.4. One additional group of 8 female mice received the positive control article, liraglutide, at a dose level of 50 nmoles/kg. The test articles, vehicle, and positive control article were administered on Day 1, at approximately 0, 7, and 24 hours during the study via subcutaneous injection at a dose volume of 6 mL/kg.
Clinical observations were conducted at receipt, prior to randomization, and daily from Days 1 to 5. Body weights were measured and recorded at receipt, prior to randomization, and daily from Days 1 to 5. Food consumption was measured and recorded daily from Days 1 to 5. Blood samples for glucose analysis were collected pretest (Day −3) and at 0, 1, 2, 4, 8, 10, 24, 48, 72, and 96 hours following the first dose on Day 1. At study termination all animals were euthanized and the carcasses were discarded without further evaluation.

T1 sequence (P43220 24-463): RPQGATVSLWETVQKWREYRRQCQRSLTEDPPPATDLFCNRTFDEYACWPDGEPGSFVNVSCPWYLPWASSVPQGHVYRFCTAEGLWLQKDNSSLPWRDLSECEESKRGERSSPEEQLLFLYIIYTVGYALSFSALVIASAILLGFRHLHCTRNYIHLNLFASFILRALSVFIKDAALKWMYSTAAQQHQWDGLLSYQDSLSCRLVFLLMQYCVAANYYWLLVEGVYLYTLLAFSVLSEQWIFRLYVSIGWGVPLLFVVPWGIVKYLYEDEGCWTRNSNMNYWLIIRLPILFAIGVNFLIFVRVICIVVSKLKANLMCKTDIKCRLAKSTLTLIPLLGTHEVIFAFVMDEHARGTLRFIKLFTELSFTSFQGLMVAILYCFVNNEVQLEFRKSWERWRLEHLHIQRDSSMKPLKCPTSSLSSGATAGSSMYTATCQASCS

Row | SMILES | pEC50 [1] | pEC50 [2] | pEC50 [3] | db/db mice - Mean Blood Glucose, 0 hr ([4]; 250 nmole/kg s.c.) [mg/dL] | db/db mice - Mean Blood Glucose, 10 hr ([4]; 250 nmole/kg s.c.) [mg/dL] | db/db mice - Mean Blood Glucose, 24 hr ([4]; 250 nmole/kg s.c.) [mg/dL] | db/db mice - Mean Blood Glucose, 48 hr ([4]; 250 nmole/kg s.c.) [mg/dL] | db/db mice - Mean Blood Glucose, 0 hr ([4]; 300 nmole/kg s.c.) [mg/dL] | db/db mice - Mean Blood Glucose, 10 hr ([4]; 300 nmole/kg s.c.) [mg/dL] | db/db mice - Mean Blood Glucose, 24 hr ([4]; 300 nmole/kg s.c.) [mg/dL] | db/db mice - Mean Blood Glucose, 48 hr ([4]; 300 nmole/kg s.c.) [mg/dL] | glucose levels versus vehicle ([4]; db/db mice, 10 and 24 hours, high dose (300 nmoles/kg)) | food consumption versus Liraglutide ([4]; db/db mice, Day 1, high dose (300 nmoles/kg)) | body weight changes against vehicle ([4]; db/db mice, Days 2 and 3, liraglutide 50 nmoles/kg, test articles high dose (300 nmoles/kg))
1 | CCCCCCCCCCCCO[C@@H]1O[C@H](C(=O)NCCCC[C@H](NC(=O)[C@@H](NC(=O)[C@H](Cc2ccccc2)NC(=O)[C@H](CCC(=O)O)NC(=O)[C@@H]2CCCCNC(=O)CC[C@H](NC(=O)[C@H](CC(=O)O)NC(=O)[C@H](CC(C)C)NC(=O)[C@H](Cc3ccc(O)cc3)NC(=O)[C@H](CCCCN)NC(=O)[C@H](CO)NC(=O)[C@H](Cc3ccc(O)cc3)NC(=O)[C@H](CC(=O)O)NC(=O)[C@H](CO)NC(=O)[C@@H](NC(=O)[C@H](Cc3ccccc3)NC(=O)[C@@H](NC(=O)CNC(=O)[C@H](CCC(N)=O)NC(=O)C(C)(C)NC(=O)[C@@H](N)Cc3c[nH]cn3)[C@@H](C)O)[C@@H](C)O)C(=O)N[C@@H](CCC(N)=O)C(=O)N[C@@H](C)C(=O)N[C@@H](C)C(=O)N2)[C@@H](C)CC)C(=O)N[C@@H](Cc2c[nH]c3ccccc23)C(=O)N[C@@H](CC(C)C)C(=O)N[C@@H](CC(C)C)C(=O)N[C@@H](CCC(N)=O)C(=O)N[C@H](C(N)=O)[C@@H](C)O)[C@@H](O)[C@H](O)[C@H]1O [EU-A993, His1-Aib2-Gln3-Gly4-Thr5-Phe6-Thr7-Ser8-Asp9-Tyr10-Ser11-Lys12-Tyr13-Leu14-Asp15-Glu*16-Gln17 Ala18-Ala19-Lys*20-Glu21-Phe22-Ile23-Lys(N-omega(1-dodecylbeta-D-glucuronyl))24-Trp25-Leu26-Leu27-Gln28-Thr29-NH2] | > 10.30 | 7.91 | > 10.30 | 503 | 305 | 324 | 426 |  |  |  |  |  |  | 
2 | CCCCCCCCCCCCCCO[C@@H]1O[C@H](C(=O)NCCCC[C@H](NC(=O)[C@@H](NC(=O)[C@H](Cc2ccccc2)NC(=O)[C@H](CCC(=O)O)NC(=O)[C@@H]2CCCCNC(=O)CC[C@H](NC(=O)[C@H](CC(=O)O)NC(=O)[C@H](CC(C)C)NC(=O)[C@H](Cc3ccc(O)cc3)NC(=O)[C@H](CCCCN)NC(=O)[C@H](CO)NC(=O)[C@H](Cc3ccc(O)cc3)NC(=O)[C@H](CC(=O)O)NC(=O)[C@H](CO)NC(=O)[C@@H](NC(=O)[C@H](Cc3ccccc3)NC(=O)[C@@H](NC(=O)CNC(=O)[C@H](CCC(N)=O)NC(=O)C(C)(C)NC(=O)[C@@H](N)Cc3c[nH]cn3)[C@@H](C)O)[C@@H](C)O)C(=O)N[C@@H](CCC(N)=O)C(=O)N[C@@H](C)C(=O)N[C@@H](C)C(=O)N2)[C@@H](C)CC)C(=O)N[C@@H](Cc2c[nH]c3ccccc23)C(=O)N[C@@H](CC(C)C)C(=O)N[C@@H](CC(C)C)C(=O)N[C@@H](CCC(N)=O)C(=O)N[C@H](C(N)=O)[C@@H](C)O)[C@@H](O)[C@H](O)[C@H]1O [EU-A994, His1-Aib2-Gln3-Gly4-Thr5-Phe6-Thr7-Ser8-Asp9-Tyr10-Ser11-Lys12-Tyr13-Leu14-Asp15-Glu*16-Gln17 Ala18-Ala19-Lys*20-Glu21-Phe22-Ile23-Lys(N-omega(1-tetradecylbeta-D-glucuronyl))24-Trp25-Leu26-Leu27-Gln28-Thr29-NH2] | 10.30 | 7.99 | > 10.30 |  |  |  |  | 554 | 242 | 209 | 385 | significantly different from vehicle | significantly different from Liraglutide | Significant body weight changes
